In assay [1] the target is T1, Chromobox protein homolog 7 (Homo sapiens, UniProt O95931).
T1 sequence (O95931 whole entry): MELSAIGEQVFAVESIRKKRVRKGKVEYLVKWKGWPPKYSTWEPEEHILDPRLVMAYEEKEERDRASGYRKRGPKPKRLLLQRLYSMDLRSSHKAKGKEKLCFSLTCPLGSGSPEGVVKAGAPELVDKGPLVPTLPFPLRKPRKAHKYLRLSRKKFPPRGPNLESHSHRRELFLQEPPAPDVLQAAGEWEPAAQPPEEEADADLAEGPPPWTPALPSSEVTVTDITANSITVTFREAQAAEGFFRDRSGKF
Put plainly: Binding affinity to N-terminal His6-tagged human CBX7 (8 to 62) expressed in Escherichia coli BL21 using FITC-peptide-3 as competitive binding probe by fluorescence polarization assay. A general note: In fluorescence polarisation assays a small probe gives low polarisation when free and higher when bound to something large.

Assay [2] addresses T1, Chromobox protein homolog 7. Put plainly: Binding affinity to N-terminal His6-tagged human CBX7 (8 to 62 residues) expressed in Escherichia coli BL21 by surface plasmon resonance assay. In general terms: SPR reads the build-up and loss of mass on a sensor chip optically.
In assay [3] the target is Chromobox protein homolog 7 (Homo sapiens, UniProt O95931, V13A). Put plainly: Binding affinity to human CBX7 V13A mutant expressed in Escherichia coli BL21 by surface plasmon resonance assay.
Assay [4] addresses T2, Chromobox protein homolog 6 (Homo sapiens, UniProt O95503).
T2 sequence (O95503 whole entry): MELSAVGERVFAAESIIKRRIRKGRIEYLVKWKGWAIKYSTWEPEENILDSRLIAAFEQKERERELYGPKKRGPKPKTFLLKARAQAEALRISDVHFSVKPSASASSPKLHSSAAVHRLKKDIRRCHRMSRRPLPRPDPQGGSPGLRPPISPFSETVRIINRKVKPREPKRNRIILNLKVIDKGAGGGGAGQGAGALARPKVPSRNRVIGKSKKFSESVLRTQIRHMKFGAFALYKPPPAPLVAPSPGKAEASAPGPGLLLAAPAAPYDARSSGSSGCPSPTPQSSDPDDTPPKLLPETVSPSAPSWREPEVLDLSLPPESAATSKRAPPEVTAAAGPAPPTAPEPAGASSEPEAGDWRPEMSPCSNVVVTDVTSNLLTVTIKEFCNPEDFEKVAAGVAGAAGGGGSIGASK
Put plainly: Binding affinity to N-terminal His6-tagged human CBX6 (8 to 65 residues) expressed in Escherichia coli BL21 by surface plasmon resonance assay.

The target of assay [5] is T3, E3 SUMO-protein ligase CBX4 (Homo sapiens, UniProt O00257).
T3 sequence (O00257 whole entry): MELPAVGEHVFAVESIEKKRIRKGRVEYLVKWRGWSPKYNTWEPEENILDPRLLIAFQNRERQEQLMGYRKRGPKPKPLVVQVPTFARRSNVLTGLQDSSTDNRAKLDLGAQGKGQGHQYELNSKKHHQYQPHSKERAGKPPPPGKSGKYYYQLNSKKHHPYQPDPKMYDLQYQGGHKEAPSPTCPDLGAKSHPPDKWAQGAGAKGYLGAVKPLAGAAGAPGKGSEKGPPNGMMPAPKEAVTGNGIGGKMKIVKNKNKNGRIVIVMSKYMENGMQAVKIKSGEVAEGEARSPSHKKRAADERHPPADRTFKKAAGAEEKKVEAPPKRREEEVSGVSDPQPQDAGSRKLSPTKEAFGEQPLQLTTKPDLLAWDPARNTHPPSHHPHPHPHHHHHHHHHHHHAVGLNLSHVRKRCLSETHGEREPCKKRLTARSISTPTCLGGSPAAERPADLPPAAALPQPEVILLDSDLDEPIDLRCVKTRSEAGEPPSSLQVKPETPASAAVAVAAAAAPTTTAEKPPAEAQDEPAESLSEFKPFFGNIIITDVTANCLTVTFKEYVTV
Put plainly: Binding affinity to N-terminal His6-tagged human CBX4 (8 to 65 residues) expressed in Escherichia coli BL21 using FITC-peptide-3 as competitive binding probe by fluorescence polarization assay.

Assay [6] deals with T4, Chromobox protein homolog 2 (Homo sapiens, UniProt Q14781).
T4 sequence (Q14781 whole entry): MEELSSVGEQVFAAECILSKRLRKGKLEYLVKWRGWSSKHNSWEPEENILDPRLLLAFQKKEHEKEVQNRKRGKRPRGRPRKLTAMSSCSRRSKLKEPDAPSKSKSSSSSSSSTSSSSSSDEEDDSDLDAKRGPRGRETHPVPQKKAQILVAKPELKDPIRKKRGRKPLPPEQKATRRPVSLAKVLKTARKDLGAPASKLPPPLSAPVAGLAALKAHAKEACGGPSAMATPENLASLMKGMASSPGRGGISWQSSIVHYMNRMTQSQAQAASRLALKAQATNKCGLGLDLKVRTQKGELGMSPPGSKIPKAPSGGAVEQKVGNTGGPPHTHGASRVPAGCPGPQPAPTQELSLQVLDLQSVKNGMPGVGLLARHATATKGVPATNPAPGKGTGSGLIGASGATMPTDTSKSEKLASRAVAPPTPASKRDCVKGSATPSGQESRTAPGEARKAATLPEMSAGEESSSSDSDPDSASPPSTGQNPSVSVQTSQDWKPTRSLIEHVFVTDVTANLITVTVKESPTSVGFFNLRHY
Put plainly: Binding affinity to N-terminal His6-tagged human CBX2 (8 to 62) expressed in Escherichia coli BL21 using FITC-peptide-3 as competitive binding probe by fluorescence polarization assay.

Assay [7] addresses Chromobox protein homolog 1 (Homo sapiens, UniProt P83916).
Assay [8] concerns the target T5, Chromobox protein homolog 8 (Homo sapiens, UniProt Q9HC52).
T5 sequence (Q9HC52 whole entry): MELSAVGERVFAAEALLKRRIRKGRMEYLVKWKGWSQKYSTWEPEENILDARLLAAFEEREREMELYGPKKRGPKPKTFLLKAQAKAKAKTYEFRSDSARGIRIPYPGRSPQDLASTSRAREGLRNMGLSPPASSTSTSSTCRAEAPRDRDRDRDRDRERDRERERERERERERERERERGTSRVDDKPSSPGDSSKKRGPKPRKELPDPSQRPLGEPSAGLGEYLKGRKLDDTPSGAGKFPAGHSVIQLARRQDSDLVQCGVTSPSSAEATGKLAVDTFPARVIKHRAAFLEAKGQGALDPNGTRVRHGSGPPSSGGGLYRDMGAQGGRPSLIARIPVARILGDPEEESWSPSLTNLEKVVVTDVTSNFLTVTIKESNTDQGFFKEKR
Briefly: Binding affinity to N-terminal His6-tagged human CBX8 (8 to 61 residues) expressed in Escherichia coli BL21 using FITC-peptide-3 as competitive binding probe by fluorescence polarization assay.

In assay [9] the target is T2, Chromobox protein homolog 6. Briefly: Binding affinity to N-terminal His6-tagged human CBX6 (8 to 65 residues) expressed in Escherichia coli BL21 using FITC-peptide-3 as competitive binding probe by fluorescence polarization assay.

SMILES strings stand for the structures. Non-standard residues stand in square brackets, D forms with d. Residues, ends and D or L forms follow the SMILES beside them. *: point of attachment. X1 = O=C(O)c1cc(NC(=S)*)ccc1-c1c2ccc(=O)cc-2oc2cc(O)ccc12; Biotin = O=C1N[C@H]2[C@H](CS[C@H]2CCCCC(=O)*)N1; Lys(Me3) = C[N+](C)(C)CCCC[C@H](N)C(=O)O; Benzoyl(4-Br) = O=C(c1ccc(Br)cc1)*; Abu = CC[C@H](N)C(=O)O

In general, IC50 refers to the concentration that gives 50% inhibition. Low values mean greater potency in that assay, high ones weaker potency in that assay. As usually defined, the Kd is the concentration at which binding is half-saturated. High values mean a looser complex, low ones a tighter complex.

Chromobox protein homolog 1, sequence (P83916 whole entry): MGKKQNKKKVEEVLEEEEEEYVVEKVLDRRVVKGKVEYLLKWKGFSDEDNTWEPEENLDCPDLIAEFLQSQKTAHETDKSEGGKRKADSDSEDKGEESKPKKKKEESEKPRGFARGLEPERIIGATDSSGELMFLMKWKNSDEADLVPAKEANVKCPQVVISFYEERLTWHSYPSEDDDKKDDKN
Chromobox protein homolog 7 (Homo sapiens, UniProt O95931, V13A), sequence (O95931 whole entry V13A): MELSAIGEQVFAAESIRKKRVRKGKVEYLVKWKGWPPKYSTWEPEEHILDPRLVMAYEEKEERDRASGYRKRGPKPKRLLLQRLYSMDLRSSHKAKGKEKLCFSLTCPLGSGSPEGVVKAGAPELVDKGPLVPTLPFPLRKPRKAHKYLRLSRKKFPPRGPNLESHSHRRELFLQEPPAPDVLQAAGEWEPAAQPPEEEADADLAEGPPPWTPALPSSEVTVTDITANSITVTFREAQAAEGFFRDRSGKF

In assay [1], `C[C@H](NC(=O)[C@H](Cc1ccccc1)NC(=O)c1ccc(Br)cc1)C(=O)N[C@@H](Cc1ccc(O)cc1)C(=O)N[C@@H](CCCC[N+](C)(C)C)C(=O)N[C@@H](CO)C(N)=O` ({Benzoyl(4-Br)}-FAY[Lys(Me3)]S-NH2) returned an IC50 of 1700 nM.
On to `C[C@H](NC(=O)[C@H](Cc1ccccc1)NC(=O)c1ccc(Br)cc1)C(=O)N[C@@H](Cc1ccc(O)cc1)C(=O)N[C@@H](CCCC[N+](C)(C)C)C(=O)N[C@@H](CO)C(=O)N[C@@H](CCC(=O)O)C(=O)N[C@@H](CCCCNC(=O)CCCC[C@@H]1SC[C@@H]2NC(=O)N[C@@H]21)C(N)=O` ({Benzoyl(4-Br)}-FAY[Lys(Me3)]SEK(Biotin)-NH2), for which the values for the Kd in assay [2], in [3] and in assay [4] were 160 nM, 290 nM and 110 nM, respectively.
Consider `C[C@H](NC(=O)[C@H](Cc1ccccc1)NC(=O)c1ccc(Br)cc1)C(=O)N[C@@H](Cc1ccc(O)cc1)C(=O)N[C@@H](CCCC[N+](C)(C)C)C(=O)N[C@@H](CO)C(=O)N[C@@H](CCC(=O)O)C(=O)N[C@@H](CCCCNC(=S)Nc1ccc(-c2c3ccc(=O)cc-3oc3cc(O)ccc23)c(C(=O)O)c1)C(N)=O` ({Benzoyl(4-Br)}-FAY[Lys(Me3)]SEK(X1)-NH2), for which the equilibrium dissociation constant (Kd) in assay [5] was determined as 200 nM; in [6], 300 nM; in assay [7], 5500 nM; in assay [8], 1000 nM; in assay [1] it was 100 nM; in assay [9] it was 300 nM.
For the molecule `CC(C)[C@H](NC(=O)[C@H](Cc1ccccc1)NC(=O)c1ccc(Br)cc1)C(=O)N[C@@H](Cc1ccc(O)cc1)C(=O)N[C@@H](CCCC[N+](C)(C)C)C(=O)N[C@@H](CO)C(=O)N[C@@H](CCC(=O)O)C(=O)N[C@@H](CCCCNC(=O)CCCC[C@@H]1SC[C@@H]2NC(=O)N[C@@H]21)C(N)=O` ({Benzoyl(4-Br)}-FVY[Lys(Me3)]SEK(Biotin)-NH2), the Kd in assay [2] was 34000 nM; in assay [3], 24000 nM; in assay [4], 910 nM.
With `CC(C)[C@H](NC(=O)[C@H](Cc1ccccc1)NC(=O)c1ccc(Br)cc1)C(=O)N[C@@H](Cc1ccc(O)cc1)C(=O)N[C@@H](CCCC[N+](C)(C)C)C(=O)N[C@@H](CO)C(=O)N[C@@H](CCC(=O)O)C(=O)N[C@@H](CCCCNC(=S)Nc1ccc(-c2c3ccc(=O)cc-3oc3cc(O)ccc23)c(C(=O)O)c1)C(N)=O` ({Benzoyl(4-Br)}-FVY[Lys(Me3)]SEK(X1)-NH2), the equilibrium dissociation constant (Kd) in assay [5] turned out to be 15500 nM; in assay [6], 17600 nM; in assay [7], 78400 nM; in [8], 6000 nM; in assay [1], 5300 nM; in assay [9], 900 nM.
In the case of `CC[C@H](NC(=O)[C@H](Cc1ccccc1)NC(=O)c1ccc(Br)cc1)C(=O)N[C@@H](Cc1ccc(O)cc1)C(=O)N[C@@H](CCCC[N+](C)(C)C)C(=O)N[C@@H](CO)C(=O)N[C@@H](CCC(=O)O)C(=O)N[C@@H](CCCCNC(=S)Nc1ccc(-c2c3ccc(=O)cc-3oc3cc(O)ccc23)c(C(=O)O)c1)C(N)=O` ({Benzoyl(4-Br)}-F[Abu]Y[Lys(Me3)]SEK(X1)-NH2), the dissociation constant Kd was determined as 800 nM in assay [5]; 1600 nM in assay [6]; 75000 nM in [7]; 1000 nM in assay [8]; 400 nM in [1]; 800 nM in [9].

These data come from ChEMBL document CHEMBL3779861, “Selective Inhibition of CBX6: A Methyllysine Reader Protein in the Polycomb Family” (ACS Med Chem Lett, 2016).
